According to ChEMBL document CHEMBL4680155, “One-pot synthesis and molecular docking of some new spiropyranindol-2-one derivatives as immunomodulatory agents and in vitro antimicrobial potential with DNA gyrase inhibitor” (Eur J Med Chem, 2020):
Converted amounts (≈) assume the structure as drawn. The source made the active and inactive calls. The calls are words filed in the database; no cut-off is given here.

Assays:
[1] = tested on: Aspergillus brasiliensis; assay: Antifungal activity against Aspergillus brasiliensis ATCC 16404 assessed as reduction in bacterial growth incubated for 3 days by paper disk diffusion method; format: functional
[2] = tested on: Aspergillus brasiliensis; assay: Fungicidal activity against Aspergillus brasiliensis ATCC 16404 incubated for 72 hrs followed by transferring to freshly prepared broth medium and measured after 24 hrs by broth microdilution assay; format: functional; settings: time 96 hrs
[3] = tested on: Staphylococcus aureus; assay: Bactericidal activity against Staphylococcus aureus ATCC 33591 incubated for 24 hrs followed by transferring to freshly prepared broth medium and measured after 24 hrs by broth microdilution assay; format: functional; settings: time 48 hrs
[4] = tested on: Pseudomonas aeruginosa; assay: Antibacterial activity against multidrug resistant Pseudomonas aeruginosa ATCC BAA-2111 assessed as reduction in bacterial growth incubated for 1 day by paper disk diffusion method; format: functional; settings: ATCC BAA-2111, 24 h
[5] = tested on: Staphylococcus aureus; assay: Antibacterial activity against multidrug resistant Staphylococcus aureus ATCC 33591 assessed as reduction in bacterial growth incubated for 1 day by paper disk diffusion method; format: functional; settings: ATCC 33591, 24 h
[6] = tested on: Pseudomonas aeruginosa; assay: Antibacterial activity against multidrug resistant Pseudomonas aeruginosa ATCC BAA-2111 assessed as diameter of inhibition zone at 0.5 mg/ml incubated for 24 hrs by agar diffusion method; format: functional; settings: read-out: DIZ
[7] = tested on: Staphylococcus aureus; assay: Antibacterial activity against Staphylococcus aureus ATCC 29213 assessed as reduction in bacterial growth incubated for 1 day by paper disk diffusion method; format: functional; settings: ATCC 29213, 24 h
[8] = tested on: Enterococcus faecalis; assay: Antibacterial activity against Enterococcus faecalis ATCC 29212 assessed as reduction in bacterial growth incubated for 1 day by paper disk diffusion method; format: functional; settings: ATCC 29212, 24 h
[9] = tested on: Staphylococcus aureus; assay: Antibacterial activity against multidrug resistant Staphylococcus aureus ATCC 43300 assessed as diameter of inhibition zone at 0.5 mg/ml incubated for 24 hrs by agar diffusion method; format: functional; settings: read-out: DIZ
[10] = tested on: Staphylococcus aureus; assay: Antibacterial activity against Staphylococcus aureus ATCC 29213 assessed as diameter of inhibition zone at 0.5 mg/ml incubated for 24 hrs by agar diffusion method; format: functional; settings: read-out: DIZ
[11] = tested on: Candida albicans; assay: Fungicidal activity against Candida albicans ATCC 10231 incubated for 24 hrs followed by transferring to freshly prepared broth medium and measured after 24 hrs by broth microdilution assay; format: functional; settings: time 48 hrs
[12] = tested on: Escherichia coli; assay: Antibacterial activity against Escherichia coli ATCC 25922 assessed as reduction in bacterial growth incubated for 1 day by paper disk diffusion method; format: functional; settings: ATCC 25922, 24 h
[13] = target: DNA gyrase (Staphylococcus aureus, UniProt P0A0K8+P20831); assay: Inhibition of Staphylococcus aureus DNA gyrase using relaxed pBR322 DNA as substrate incubated for 45 mins by agarose gel electrophoresis method; format: protein-complex assay
[14] = tested on: Escherichia coli; assay: Antibacterial activity against multidrug resistant Escherichia coli ATCC BAA-196 assessed as diameter of inhibition zone at 0.5 mg/ml incubated for 24 hrs by agar diffusion method; format: functional; settings: read-out: DIZ
[15] = tested on: Escherichia coli; assay: Antibacterial activity against multidrug resistant Escherichia coli ATCC BAA-196 assessed as reduction in bacterial growth incubated for 1 day by paper disk diffusion method; format: functional; settings: ATCC BAA-196, 24 h
[16] = tested on: Neutrophil; assay: Immunomodulatory activity in human neutrophils infected with bacteria assessed as increase in bacterial killing by measuring reduced NBT incubated for 30 mins by NBT dye based spectrophotometry; format: functional; parameters: concentration or dose not given beside the values; settings: 0.5 h
[17] = tested on: Escherichia coli; assay: Antibacterial activity against Escherichia coli ATCC 25922 assessed as diameter of inhibition zone at 0.5 mg/ml incubated for 24 hrs by agar diffusion method; format: functional; settings: read-out: DIZ
[18] = tested on: Staphylococcus aureus; assay: Bactericidal activity against Staphylococcus aureus ATCC 43300 incubated for 24 hrs followed by transferring to freshly prepared broth medium and measured after 24 hrs by broth microdilution assay; format: functional; settings: time 48 hrs
[19] = tested on: Staphylococcus aureus; assay: Bactericidal activity against Staphylococcus aureus ATCC 29213 incubated for 24 hrs followed by transferring to freshly prepared broth medium and measured after 24 hrs by broth microdilution assay; format: functional; settings: time 48 hrs
[20] = tested on: Enterococcus faecalis; assay: Bactericidal activity against Enterococcus faecalis ATCC 29212 incubated for 24 hrs followed by transferring to freshly prepared broth medium and measured after 24 hrs by broth microdilution assay; format: functional; settings: time 48 hrs
[21] = tested on: Salmonella typhimurium; assay: Bactericidal activity against Salmonella typhi ATCC 6539 incubated for 24 hrs followed by transferring to freshly prepared broth medium and measured after 24 hrs by broth microdilution assay; format: functional, Salmonella enterica subsp. enterica serovar […]; settings: Salmonella enterica, time 48 hrs
[22] = tested on: Escherichia coli; assay: Bactericidal activity against Escherichia coli ATCC 25922 incubated for 24 hrs followed by transferring to freshly prepared broth medium and measured after 24 hrs by broth microdilution assay; format: functional; settings: time 48 hrs
[23] = tested on: Enterococcus faecalis; assay: Antibacterial activity against Enterococcus faecalis ATCC 29212 assessed as diameter of inhibition zone at 0.5 mg/ml incubated for 24 hrs by agar diffusion method; format: functional; settings: read-out: DIZ
[24] = tested on: Candida albicans; assay: Antifungal activity against Candida albicans ATCC 10231 assessed as diameter of inhibition zone at 0.5 mg/ml incubated for 24 hrs by agar diffusion method; format: functional
[25] = tested on: Staphylococcus aureus; assay: Antibacterial activity against multidrug resistant Staphylococcus aureus ATCC 43300 assessed as reduction in bacterial growth incubated for 1 day by paper disk diffusion method; format: functional; settings: ATCC 43300, 24 h
[26] = tested on: Pseudomonas aeruginosa; assay: Bactericidal activity against Pseudomonas aeruginosa ATCC BAA-2111 incubated for 24 hrs followed by transferring to freshly prepared broth medium and measured after 24 hrs by broth microdilution assay; format: functional; settings: time 48 hrs
[27] = tested on: Aspergillus brasiliensis; assay: Antifungal activity against Aspergillus brasiliensis ATCC 16404 assessed as diameter of inhibition zone at 0.5 mg/ml incubated for 72 hrs by agar diffusion method; format: functional
[28] = tested on: Candida albicans; assay: Antifungal activity against Candida albicans ATCC 10231 assessed as reduction in bacterial growth incubated for 1 day by paper disk diffusion method; format: functional
[29] = tested on: Salmonella typhimurium; assay: Antibacterial activity against Salmonella typhi ATCC 6539 assessed as reduction in bacterial growth incubated for 1 day by paper disk diffusion method; format: functional, Salmonella enterica subsp. enterica serovar Typhimurium; settings: Salmonella enterica, ATCC 6539, 24 h
[30] = tested on: Escherichia coli; assay: Bactericidal activity against Escherichia coli ATCC BAA-196 incubated for 24 hrs followed by transferring to freshly prepared broth medium and measured after 24 hrs by broth microdilution assay; format: functional; settings: time 48 hrs
[31] = tested on: Staphylococcus aureus; assay: Antibacterial activity against multidrug resistant Staphylococcus aureus ATCC 33591 assessed as diameter of inhibition zone at 0.5 mg/ml incubated for 24 hrs by agar diffusion method; format: functional; settings: read-out: DIZ
[32] = tested on: Salmonella typhimurium; assay: Antibacterial activity against Salmonella typhi ATCC 6539 assessed as diameter of inhibition zone at 0.5 mg/ml incubated for 24 hrs by agar diffusion method; format: functional, Salmonella enterica subsp. enterica serovar Typhimurium; settings: Salmonella enterica, read-out: DIZ

Sequence of DNA gyrase (P0A0K8 whole entry, the tested form may be a part): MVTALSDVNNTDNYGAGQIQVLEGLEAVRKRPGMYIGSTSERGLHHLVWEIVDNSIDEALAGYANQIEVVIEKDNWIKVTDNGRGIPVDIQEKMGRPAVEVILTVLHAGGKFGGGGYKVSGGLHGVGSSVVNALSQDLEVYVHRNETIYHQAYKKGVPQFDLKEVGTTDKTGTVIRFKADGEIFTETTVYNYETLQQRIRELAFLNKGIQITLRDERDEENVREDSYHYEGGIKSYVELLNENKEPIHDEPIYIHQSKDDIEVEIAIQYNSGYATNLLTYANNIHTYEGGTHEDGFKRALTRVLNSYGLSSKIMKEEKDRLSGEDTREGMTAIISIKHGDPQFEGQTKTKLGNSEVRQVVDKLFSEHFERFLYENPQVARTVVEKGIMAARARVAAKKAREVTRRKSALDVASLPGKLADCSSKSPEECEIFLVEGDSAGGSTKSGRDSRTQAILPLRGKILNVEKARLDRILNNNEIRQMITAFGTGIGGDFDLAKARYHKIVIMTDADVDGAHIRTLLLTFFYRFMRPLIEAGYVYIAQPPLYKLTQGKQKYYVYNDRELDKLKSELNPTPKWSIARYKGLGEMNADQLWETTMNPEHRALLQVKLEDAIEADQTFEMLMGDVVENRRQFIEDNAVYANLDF
Sequence of DNA gyrase (P20831 whole entry, the tested form may be a part): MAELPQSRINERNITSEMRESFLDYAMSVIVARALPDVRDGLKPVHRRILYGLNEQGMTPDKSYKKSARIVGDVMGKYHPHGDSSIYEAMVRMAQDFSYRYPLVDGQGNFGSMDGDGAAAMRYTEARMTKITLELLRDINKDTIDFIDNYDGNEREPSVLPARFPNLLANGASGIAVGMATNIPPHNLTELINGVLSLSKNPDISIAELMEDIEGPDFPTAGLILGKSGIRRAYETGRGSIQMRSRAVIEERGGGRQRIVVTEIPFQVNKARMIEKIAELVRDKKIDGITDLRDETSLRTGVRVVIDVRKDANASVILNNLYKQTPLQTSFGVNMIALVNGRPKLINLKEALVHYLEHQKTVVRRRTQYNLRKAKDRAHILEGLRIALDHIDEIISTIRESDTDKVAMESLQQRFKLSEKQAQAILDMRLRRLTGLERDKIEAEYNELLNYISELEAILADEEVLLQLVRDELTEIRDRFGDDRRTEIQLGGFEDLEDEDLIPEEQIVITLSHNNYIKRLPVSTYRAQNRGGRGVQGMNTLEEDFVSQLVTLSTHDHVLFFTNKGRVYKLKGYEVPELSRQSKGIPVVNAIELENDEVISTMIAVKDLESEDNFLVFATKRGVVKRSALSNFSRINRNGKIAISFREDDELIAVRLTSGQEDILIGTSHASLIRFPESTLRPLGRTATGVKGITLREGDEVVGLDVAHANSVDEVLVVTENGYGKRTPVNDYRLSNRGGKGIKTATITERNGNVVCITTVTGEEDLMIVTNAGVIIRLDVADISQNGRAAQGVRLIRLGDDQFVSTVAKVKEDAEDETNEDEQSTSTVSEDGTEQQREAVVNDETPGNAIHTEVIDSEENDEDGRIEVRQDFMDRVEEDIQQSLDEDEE

Row | SMILES | MBC [3] | MIC [4] | MIC [5] | zone of inhibition at 500 µg/mL [6] | MIC [7] | MIC [8] | zone of inhibition at 500 µg/mL [9] | zone of inhibition at 500 µg/mL [10] | MIC [12] | zone of inhibition at 500 µg/mL [14] | MIC [15] | zone of inhibition at 500 µg/mL [17] | MBC [18] | MBC [19] | MBC [20] | MBC [21] | MBC [22] | zone of inhibition at 500 µg/mL [23] | MIC [25] | MBC [26] | also measured
1 | CCOC(=O)C1=C(N)OC(c2ccccc2)=C(C(=O)OCC)C12C(=O)Nc1ccc(S(=O)(=O)N3CCCCC3)cc12 (stereo not given) | 9.37 µg/mL (≈ 16.1 µM) | 5.2 µg/mL (≈ 8.94 µM) | 6.25 µg/mL (≈ 10.7 µM) | 22 mm | 88.3 µg/mL (≈ 152 µM) | 7.81 µg/mL (≈ 13.4 µM) | 22 mm | 21 mm | 8.88 µg/mL (≈ 15.3 µM) | 23 mm | 4.44 µg/mL (≈ 7.63 µM) | 23 mm | 10 µg/mL (≈ 17.2 µM) | 150 µg/mL (≈ 258 µM) | 15.6 µg/mL (≈ 26.9 µM) | 21.9 µg/mL (≈ 37.6 µM) | 11.5 µg/mL (≈ 19.8 µM) | 22 mm | 6.25 µg/mL (≈ 10.7 µM) | 8.84 µg/mL (≈ 15.2 µM) | MIC ([1]; ATCC 16404, 72 h, time 3 day): 71.8 µg/mL (≈ 123 µM); MFC [2]: 115 µg/mL (≈ 197 µM); MFC [11]: 21.9 µg/mL (≈ 37.6 µM); IC50 [13]: 23.2 µM; Activity [16]: 139.3%; zone of inhibition at 500 µg/mL ([24]; read-out: DIZ): 21 mm; zone of inhibition at 500 µg/mL ([27]; read-out: DIZ): 17 mm; MIC ([28]; ATCC 10231, 24 h): 15.6 µg/mL (≈ 26.9 µM); MIC [29]: 15.6 µg/mL (≈ 26.9 µM); MBC [30]: 5.32 µg/mL (≈ 9.15 µM); zone of inhibition at 500 µg/mL [31]: 22 mm; zone of inhibition at 500 µg/mL [32]: 21 mm
2 | CCn1cc(C(=O)O)c(=O)c2cc(F)c(N3CCNCC3)cc21 [NORFLOXACIN] | 1.56 µg/mL (≈ 4.89 µM) | 3.13 µg/mL (≈ 9.8 µM) | 0.78 µg/mL (≈ 2.44 µM) | 24 mm |  |  | 25 mm |  |  | 27 mm | 1.57 µg/mL (≈ 4.92 µM) |  | 2.81 µg/mL (≈ 8.8 µM) |  |  |  |  |  | 1.25 µg/mL (≈ 3.91 µM) | 4.69 µg/mL (≈ 14.7 µM) | MBC [30]: 3.53 µg/mL (≈ 11.1 µM); zone of inhibition at 500 µg/mL [31]: 26 mm
3 | CN(C)[C@@H]1C(O)=C(C(N)=O)C(=O)[C@@]2(O)C(O)=C3C(=O)c4c(O)cccc4[C@@](C)(O)[C@H]3C[C@@H]12 [TETRACYCLINE] |  |  |  |  | 62.5 µg/mL (≈ 141 µM) | 62.5 µg/mL (≈ 141 µM) |  | 25 mm | 15.6 µg/mL (≈ 35.1 µM) |  |  | 23 mm |  | 87.5 µg/mL (≈ 197 µM) | 37.5 µg/mL (≈ 84.4 µM) | 81.2 µg/mL (≈ 183 µM) | 18.7 µg/mL (≈ 42.2 µM) | 22 mm |  |  | MIC ([1]; time 3.0 day): inactive; diameter of the inhibition zone (DIZ) [24]: inactive; diameter of the inhibition zone (DIZ) [27]: inactive; MIC [28]: inactive; MIC [29]: 62.5 µg/mL (≈ 141 µM); zone of inhibition at 500 µg/mL [32]: 21 mm
